Source: patent US9278958B2, “Anti-cancer compounds” (KATHOLIEKE UNIVERSITEIT LEUVEN, priority 2012, dated 2016)
Where two headings read alike, the source gives them in different places.

Tests used:
CEM cells = experiment: Cytostatic assay, CEM; format: cell-based; settings: Homo sapiens, CCRF-CEM
How it was run: (§1)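 A density of 5-7.5×10^4 cells per well is treated with compound. Incubation lasts 48 h to 96 h according to cell type, in humidified, CO2-controlled conditions at 37° C, after which cells are enumerated electronically.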

Molt4/C8 cells = experiment: Cytostatic assay, Molt4/C8; format: cell-based; settings: Table 2
Description: (§2) To each well of a 96-well microtiter plate were added 5-7.5×10^4 cells and a given amount of the test compound. The cells were allowed to proliferate for 48 h to 96 h (depending on the nature of the cell line) at 37° C. in a humidified CO2-controlled atmosphere. At the end of the incubation period, the cells were counted in a Coulter Counter (Coulter Electronics Ltd, Harpenden Herts, United Kingdom).

Sup T1 cells = experiment: Cytostatic assay, Sup T1; format: cell-based; settings: Homo sapiens, Table 2, read-out: Cytostatic activity (μM) Sup T 1
Description: as §2

MT-2 cells = experiment: Cytostatic assay, MT-2; format: cell-based; settings: Homo sapiens, MT2; Table 2
Description: as §2

C8166 cells = experiment: Cytostatic assay, C8166; format: cell-based; settings: Homo sapiens, Table 2
Description: as §2

HUT-78 cells = experiment: Cytostatic assay, HUT-78; format: cell-based; settings: Homo sapiens, HuT78; Table 2
Description: as §2

MT-4 cells = experiment: Cytostatic assay, MT-4; format: cell-based; settings: Homo sapiens, MT4; Table 2
Description: as §2

[1] = system: HL60, human leukemia cells; experiment: Cytostatic assay, HL-60; format: cell-based; settings: Table 2
Description: as §2

[2] = system: U937, human monocytic cells; experiment: Cytostatic assay, U937; format: cell-based; settings: U-937, Table 2
Description: as §2

[3] = system: THP-1, human monocytic cells; experiment: Cytostatic assay, THP-1; format: cell-based; settings: Table 2
Description: as §2

[4] = system: Raji, human B-lymphoma cells; experiment: Cytostatic assay, Raji; format: cell-based; settings: Table 2
Description: as §2

L1210 cells = experiment: Cytostatic assay, L1210; format: cell-based; settings: Mus musculus, Table 2
Description: as §2

[5] = system: OST TK- osteosarcoma cells; experiment: Cytostatic assay, OST TK-; format: cell-based; settings: Homo sapiens; Table 3
Description: as §2

[6] = system: MCF-7 mammary carcinoma cells; experiment: Cytostatic assay, MCF-7; format: cell-based; settings: Homo sapiens, MCF7; Table 3
Description: as §2

[7] = system: FM3A mammary carcinoma cells; experiment: Cytostatic assay, FM3A; format: cell-based, murine; settings: Mus musculus, Table 3
Description: as §2

[8] = system: HeLa cervix carcinoma cells; experiment: Cytostatic assay, HeLa; format: cell-based, human; settings: Homo sapiens; Table 3; read-out: Cytostatic activity (μM) Hela
How it was run: as §1

[9] = system: Caki-1 kidney carcinoma cells; experiment: Cytostatic assay, Caki-1; format: cell-based; settings: Homo sapiens, Table 3
Description: as §2

[10] = system: Caki-2 kidney carcinoma cells; experiment: Cytostatic assay, Caki-2; format: cell-based; settings: Homo sapiens, Table 3
Description: as §2

[11] = system: 293T embryonic kidney cells; experiment: Cytostatic assay, 293T; format: cell-based; settings: Homo sapiens, HEK-293T; Table 3
Description: as §2

[12] = system: HT29 colorectal carcinoma cells; experiment: Cytostatic assay, HT29; format: cell-based; settings: Homo sapiens, HT-29; Table 3
Description: as §2

U87 glioma cells = experiment: Cytostatic assay, U87; format: cell-based; settings: Homo sapiens, U-87 MG; Table 3
Description: as §2

[13] = system: HEL embryonic lung fibroblast cells; experiment: Cytostatic assay, HEL; format: cell-based; settings: Homo sapiens, Table 3
Description: as §2

[14] = system: BAEC aortic endothelial cells; experiment: Cytostatic assay, BAEC; format: cell-based, bovine; settings: Bos taurus, Table 3
Description: as §2

[15] = system: PC3 (rega) prostate cancer cells; experiment: Cytostatic assay, PC3 (rega); format: cell-based; settings: Table 4
Description: as §2

BPH-1 (UZ) = experiment: Cytostatic assay, BPH-1 (UZ); format: cell-based; settings: Homo sapiens, Table 4
Description: as §2

[16] = system: DU145 (UZ) prostate cancer cells; experiment: Cytostatic assay, DU145 (UZ); format: cell-based; settings: Homo sapiens, DU-145; Table 4
Description: as §2

[17] = system: PC-3 (UZ) prostate cancer cells; experiment: Cytostatic assay, PC-3 (UZ); format: cell-based; settings: Table 4
Description: as §2

[18] = system: LNCaP (UZ) prostate cancer cells; experiment: Cytostatic assay, LNCaP (UZ); format: cell-based; settings: Homo sapiens, Table 4
Description: as §2

[19] = system: PNT1A (UZ) prostate cells; experiment: Cytostatic assay, PNT1A (UZ); format: cell-based; settings: Homo sapiens, Table 4
Description: as §2

[20] = system: 22Rv1 (UZ) prostate cancer cells; experiment: Cytostatic assay, 22Rv1 (UZ); format: cell-based; settings: Homo sapiens, Table 4
Description: as §2

PLC/PRF/5 hepatoma cells = experiment: Cytostatic assay, PLC/PRF/5; format: cell-based; settings: Homo sapiens, Table 4
Description: as §2

HepG2C3A hepatoma cells = experiment: Cytostatic assay, HepG2C3A; format: cell-based; settings: Homo sapiens, HepG2/C3A; Table 4
Description: as §2

Huh-7 hepatoma cells = experiment: Cytostatic assay, Huh-7; format: cell-based; settings: Homo sapiens, Table 4
Description: as §2

[21] = system: DNA synthesis in CEM cells; experiment: Antimetabolic activity assay, [CH3-3H]dThd incorporation (DNA synthesis), CEM; format: cell-based; settings: Homo sapiens, CCRF-CEM, incorporation into TCA-insoluble material
Description: (§3) Radiolabeled precursors of DNA synthesis ([^3H-methyl]dThd), RNA synthesis ([5-^3H]Urd), and protein synthesis ([4,5-^3H]leu) were added to 10^5 CEM cell cultures in the 200 μl-wells of a microtiter plate at 1 μCi for each precursor in the presence of varying concentrations of the test compounds (5-fold dilution series). The cells were allowed to proliferate for 20 hrs at 37° C. in a humidified, CO2-controlled atmosphere. At the end of the incubation period, the contents of the wells were brought onto 25-mm glass fiber filters and further processed for measurement of acid-insoluble radioactivity.

[22] = system: DNA synthesis in Raji cells; experiment: Antimetabolic activity assay, [CH3-3H]dThd incorporation (DNA synthesis), Raji; format: cell-based; settings: Homo sapiens, incorporation into TCA-insoluble material
Description: [The procedure below names another cell line; the source lists this cell line under the same test.] as §3

[23] = system: RNA synthesis in CEM cells; experiment: Antimetabolic activity assay, [5-3H]uridine incorporation (RNA synthesis), CEM; format: cell-based; settings: Homo sapiens, CCRF-CEM, incorporation into TCA-insoluble material
Description: as §3

[24] = system: RNA synthesis in Raji cells; experiment: Antimetabolic activity assay, [5-3H]uridine incorporation (RNA synthesis), Raji; format: cell-based; settings: Homo sapiens, incorporation into TCA-insoluble material
Description: [The procedure below names another cell line; the source lists this cell line under the same test.] as §3

[25] = system: protein synthesis in CEM cells; experiment: Antimetabolic activity assay, [4,5-3H]leucine incorporation (protein synthesis), CEM; format: cell-based; settings: Homo sapiens, CCRF-CEM, incorporation into TCA-insoluble material
Description: as §3

[26] = system: protein synthesis in Raji cells; experiment: Antimetabolic activity assay, [4,5-3H]leucine incorporation (protein synthesis), Raji; format: cell-based; settings: Homo sapiens, incorporation into TCA-insoluble material
Description: [The procedure below names another cell line; the source lists this cell line under the same test.] as §3

[27] = Table 1a, read-out: IC50 μM (CEM)
[28] = Table 2, read-out: Cytostatic activity (μM) CEM

SMILES: COc1ccccc1CCc1cc(C#N)c(N)s1 [TR585, 2-Amino-5-[2-(2-methoxy-phenyl)-ethyl]-thiophene-3-carbonitrile]
- IC50 (CEM cells; [27]): 8.3 µM
- IC50 (CEM cells; [28]): 8.3 ± 2.4 µM
- IC50 (Molt4/C8 cells): 2 ± 0.2 µM
- IC50 (Sup T1 cells): 4.7 ± 0.38 µM
- IC50 (MT-2 cells): 4.75 ± 0.08 µM
- IC50 (C8166 cells): 16 ± 6.5 µM
- IC50 (HUT-78 cells): 7.1 ± 1.3 µM
- IC50 (MT-4 cells): 8.1 ± 0.78 µM
- IC50 [1]: 3.5 ± 0.57 µM
- IC50 [2]: 3.4 ± 2.8 µM
- IC50 [3]: 3.8 ± 0.6 µM
- IC50 [4]: 13 ± 3.5 µM
- IC50 (L1210 cells): 15 ± 4 µM
- IC50 [5]: 3.96 ± 1.56 µM
- IC50 [6]: 5.42 ± 0.69 µM
- IC50 [7]: 25 ± 0.71 µM
- IC50 [8]: 8.3 ± 1.5 µM
- IC50 [9]: 4.6 ± 1.3 µM
- IC50 [10]: 4.8 ± 4.5 µM
- IC50 [11]: 10 ± 0.071 µM
- IC50 [12]: 8.9 ± 0.92 µM
- IC50 (U87 glioma cells): 10 ± 0.78 µM
- IC50 [13]: 7.2 ± 0.49 µM
- IC50 [14]: 9.7 ± 1.8 µM
- IC50 [15]: 1.7 ± 0.35 µM
- IC50 (BPH-1 (UZ)): 7 ± 0.42 µM
- IC50 [16]: 6.4 ± 1.8 µM
- IC50 [17]: 2.6 ± 0.64 µM
- IC50 [18]: 2.7 ± 0.95 µM
- IC50 [19]: 8 ± 0.42 µM
- IC50 [20]: 9.4 ± 5.8 µM
- IC50 (PLC/PRF/5 hepatoma cells): 6.7 ± 0.64 µM
- IC50 (HepG2C3A hepatoma cells): 7.2 ± 4 µM
- IC50 (Huh-7 hepatoma cells): 8.3 ± 0.78 µM
- IC50 [21]: > 100 µM
- IC50 [22]: ≥ 100 µM
- IC50 [23]: ≥ 100 µM
- IC50 [24]: ≥ 100 µM
- IC50 [25]: 11 ± 8 µM
- IC50 [26]: ≥ 100 µM

SMILES: CCOC(=O)c1cc(-c2ccc(OC)cc2)sc1N [TR525, 2-Amino-5-(4-methoxy-phenyl)-thiophene-3-carboxylic acid ethyl ester]
- IC50 (CEM cells; [27]): 40 µM
- IC50 (CEM cells; [28]): 40 ± 1 µM
- IC50 (Molt4/C8 cells): 18 ± 2.1 µM
- IC50 (Sup T1 cells): 86 ± 7.1 µM
- IC50 (MT-2 cells): 52 ± 5.7 µM
- IC50 (C8166 cells): 102 ± 16 µM
- IC50 (HUT-78 cells): 117 ± 21 µM
- IC50 (MT-4 cells): > 100 µM
- IC50 [1]: 62 ± 9.9 µM
- IC50 [2]: 115 ± 19 µM
- IC50 [3]: 102 ± 2.8 µM
- IC50 [4]: > 100 µM
- IC50 (L1210 cells): 44 ± 3 µM
- IC50 [5]: 79 ± 2.8 µM
- IC50 [6]: 81 ± 4.9 µM
- IC50 [7]: 49 ± 6 µM
- IC50 [8]: 39 ± 4 µM
- IC50 [9]: 83 ± 36 µM
- IC50 [10]: 159 ± 19 µM
- IC50 [11]: > 100 µM
- IC50 [12]: 93 ± 11 µM
- IC50 (U87 glioma cells): 90 ± 14 µM
- IC50 [13]: 43 ± 9.9 µM
- IC50 [14]: 74 ± 26 µM
- IC50 [15]: 13 ± 9.6 µM
- IC50 (BPH-1 (UZ)): 36 ± 1.4 µM
- IC50 [16]: 41 ± 24 µM
- IC50 [17]: 20 ± 3.5 µM
- IC50 [18]: 2.3 ± 0.071 µM
- IC50 [19]: 42 ± 5.7 µM
- IC50 [20]: 16 ± 5.5 µM
- IC50 (PLC/PRF/5 hepatoma cells): > 100 µM
- IC50 (HepG2C3A hepatoma cells): > 100 µM
- IC50 (Huh-7 hepatoma cells): > 100 µM
- IC50 [21]: 15 ± 3 µM
- IC50 [22]: ≥ 100 µM
- IC50 [23]: 12 ± 5 µM
- IC50 [24]: 82 ± 26 µM
- IC50 [25]: 6.2 ± 7.6 µM
- IC50 [26]: ≥ 100 µM
